Assay results taken from patent publication US12048680B2, “Use of Gemfibrozil and derivative thereof for treatment and/or prevention of neurodegenerative disease” (Kunming Institute of Zoology Chinese Academy of Sciences, priority 2018, dated 2024).

How the values were obtained:
Format in all cases: in vivo
soluble Aβ = experiment: Western blot of soluble Aβ in mouse brain tissue
Procedure: (§1) Gemfibrozil was administered to 8-month-old APP/PS1ΔE9 mice (male and female halves). Gemfibrozil was first dissolved in dimethyl sulfoxide (DMSO) at a concentration of 50 mg/mL, and then diluted to a final concentration of 50 μg/mL with mouse drinking water to obtain a drug solution. The mice in the administration group were allowed to freely drink the drug solution containing gemfibrozil, in which the final concentration of DMSO in the solution was 0.1%; and the mice in the control group were allowed to drink water containing 0.1% DMSO freely. All drinking devices contained with Gemfibrozil were wrapped in aluminum foil to prevent decomposition by exposure. During dosing, the drug solution was replaced every 2 days. Mice were measured daily for water consumption. After 2 months of dosing, all mice were subjected to behavioural experiments. Mice were placed in the laboratory to be behaviourally tested one hour prior to the start of daily behavioural studies, and all behavioural experiments were completed between 9 and 17 o'clock. All experiments involving animals were approved by Animal Ethics Committee of the Kunming Institute of Zoology, CAS.
4. Expression of Related Proteins by Western Blot
The specific steps were as follows:
1) Extracting protein: the protein was extracted from the mouse brain tissue using western and an IP lysate from Beyotime Biotechnology.
2) Determining protein concentration: HM and U251-APP cells and mouse brain proteins were measured using a BCA protein quantification kit, and the extracted proteins were used for subsequent detection.
3) Pretreatment before loading: each sample was loaded at 20 μg depending on the protein concentration. The protein denaturant anhydrous mercaptoethanol was first added to denature the proteins at 95° C. for 6 minutes. After denaturation, the sample was placed on ice and stood for 5 minutes.
4) Loading and performing ectrophoresis: the denatured protein samples were loaded to the corresponding wells to start electrophoresis.
5) Membrane transfer treatment: according to the ratio of the reagent required by 1 L of a membrane transfer solution (10× membrane transfer solution: anhydrous methanol:water=1:2:7), a certain amount of the membrane transfer solution was prepared, the sponge and filter paper were immersed in the membrane transfer solution, and the PVDF membrane was previously immersed in anhydrous methanol for 30 seconds to be activated. A membrane transfer plate was manufactured according to the sequence of sponge-filter paper-glue-membrane-filter paper-sponge (the protein was negatively charged, and was transferred to a PVDF membrane towards the positive electrode). […]

insoluble Aβ = experiment: ELISA of insoluble Aβ in mouse brain tissue; conditions: hippocampus and cortex tissues, vs control group (C in FIG. 4)
Procedure: as §1, with “CAS. 8. Content of insoluble Aβ in mouse brain tissue by ELISA The content of insoluble Aβ in brain tissue was detected by an ELISA kit (Elabscience), and the experiment was performed according to the instructions of the ELISA kit.” for “CAS.”

astrocytes and microglia = experiment: Immunofluorescence staining of mouse brain tissue, glia co-localization with Aβ plaques; conditions: brain tissue of APP/PS1ΔE9 mice
Aβ plaques = experiment: Immunohistochemical staining of Aβ plaques with Aβ (4G8) antibodies; conditions: brain tissue of APP/PS1ΔE9 mouse, vs control group (A-C in FIG. 5)
[1] = hippocampus and cortex of APP/PS1ΔE9 mice, Western blot (A-B in FIG. 4)

Cc1ccc(C)c(OCCCC(C)(C)C(=O)O)c1 [Gemfibrozil, 2,2-dimethyl-5-(2,5-dimethylphenoxy) pentanoic acid]
ratio of Aβ42 and Aβ40 (soluble) (soluble Aβ; between groups, Western blot (A-B in FIG. 4)): did not change significantly
level of Aβ40 (soluble) (soluble Aβ; [1]): decreased significantly
level of Aβ42 (soluble) (soluble Aβ; [1]): decreased significantly
soluble Aβ (soluble Aβ; hippocampus and cortex of APP/PS1ΔE9 mice, vs control group (A-B in FIG. 4)): significantly reduced
amount of insoluble Aβ40 (insoluble Aβ): significantly reduced
amount of insoluble Aβ42 (insoluble Aβ): significantly reduced
ratio of insoluble Aβ42 and Aβ40 (insoluble Aβ): did not change significantly
degree of co-localization of the marker Iba1 for microglia with Aβ plaques (astrocytes and microglia; vs control APP/PS1ΔE9 mice (A-B in FIG. 6)): significantly increased
degree of co-localization of GFAP for astrocytes with Aβ plaques (astrocytes and microglia; vs control APP/PS1ΔE9 mice (C-D in FIG. 6)): significantly increased
deposition of Aβ plaques labeled with Aβ (4G8) antibodies (Aβ plaques): significantly reduced
